In experiment [1] the target is T1, human androgen receptor (Homo sapiens, UniProt P10275).
T1 construct: expressed in transfected cells
T1 sequence (P10275 1-920): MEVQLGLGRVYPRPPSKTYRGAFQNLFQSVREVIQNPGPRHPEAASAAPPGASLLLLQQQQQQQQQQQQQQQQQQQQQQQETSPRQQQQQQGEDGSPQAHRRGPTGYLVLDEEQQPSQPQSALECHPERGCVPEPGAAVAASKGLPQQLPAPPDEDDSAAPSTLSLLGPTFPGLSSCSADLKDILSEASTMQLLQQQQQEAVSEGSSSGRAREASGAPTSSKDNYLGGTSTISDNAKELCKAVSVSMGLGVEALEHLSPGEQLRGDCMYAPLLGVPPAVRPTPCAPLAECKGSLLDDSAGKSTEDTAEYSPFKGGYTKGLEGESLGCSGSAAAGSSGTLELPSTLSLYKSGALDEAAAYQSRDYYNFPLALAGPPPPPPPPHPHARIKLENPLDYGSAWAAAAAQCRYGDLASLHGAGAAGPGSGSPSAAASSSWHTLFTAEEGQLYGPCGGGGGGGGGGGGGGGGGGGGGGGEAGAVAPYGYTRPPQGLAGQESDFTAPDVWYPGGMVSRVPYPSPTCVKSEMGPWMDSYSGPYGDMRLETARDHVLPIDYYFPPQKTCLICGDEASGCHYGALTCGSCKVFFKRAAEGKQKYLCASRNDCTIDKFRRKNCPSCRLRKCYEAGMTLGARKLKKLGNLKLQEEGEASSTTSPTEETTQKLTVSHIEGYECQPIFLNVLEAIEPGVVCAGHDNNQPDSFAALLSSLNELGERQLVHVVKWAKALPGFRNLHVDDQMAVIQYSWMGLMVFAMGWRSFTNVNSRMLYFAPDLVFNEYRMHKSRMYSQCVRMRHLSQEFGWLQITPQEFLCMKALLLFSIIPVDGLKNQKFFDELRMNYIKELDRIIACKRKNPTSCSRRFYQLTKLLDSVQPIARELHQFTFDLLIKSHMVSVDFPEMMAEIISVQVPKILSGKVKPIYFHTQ
In words: Measurement of agonist effect on androgen receptor (reporter gene assay, 11A11B2 cells). The settings on record: compound concentration showing a transcription activity of 5% (0.1 nmol/L DHT = 100%, assay medium alone = 0%), 48 hours. In kind it is cell-based. The procedure:
(§1) HeLa cells (purchased from Dai-Nippon Seiyaku K. K.) were cultured overnight in Dulbecco's Modified Eagle Medium containing no phenol red, but containing 3% charcoal-treated fetal bovine serum (hereafter referred to as DCC-FBS) (this medium is hereafter referred to as phenol-red-free DMEM). An MMTV-Luc-Hyg vector (reporter plasmid with mouse mammary tumor virus long terminal repeat, containing an androgen response element and a hygromycin resistance gene: a vector obtained by substituting a chloramphenicol acetyl transferease gene of a GM-CAT vector (A.T.C.C No. 67282) purchased from the A.T.C.C. with the firefly luciferase gene, and inserting a hygromycin resistance gene as a drug resistant gene), and pSG5-hAR-neo (human androgen receptor expression vector: a vector having an androgen receptor gene under the control of the SV40 promoter, and having a neomycin resistance gene inserted as a drug resistance gene) were transfected into the HeLa cells using an FuGENE™ 6 Transfection Reagent (obtained from Roche).
(§2) The clone cells thus obtained (11A11B2 cells) were maintained and propagated using DMEM containing 400 μg/mL neomycin, 200 μg/mL hygromycin and 10% FBS, and were propagated using phenol-red-free DMEM containing 10% DCC-FBS three to four days prior to the performance of an androgen receptor reporter gene assay.
The 11A11B2 cells were inoculated in a white clear-bottomed 96-well microplate (COSTAR) so that the cell concentration was 1.0×10^4/well, and were cultured overnight using phenol-red-free DMEM containing 3% DCC-FBS (hereafter referred to as the assay medium). Samples of the assay medium containing the compounds of the Examples and compounds of the Comparative Examples were added so that the final concentrations of the compounds of the Examples and compounds of the Comparative Examples were 1, 10, 100, 1,000 and 10,000 nmol/L), and the cells were cultured for 48 hours, after which the transcription activity value was measured. The transcription activity was measured using a Bright-Glo™ Luciferase Assay System (Promega).
The transcription activity rates of the compounds of the Examples were calculated from the transcription activity measured by the abovementioned method, with the transcription activity value obtained at 0.1 nmol/L DHT taken as 100%, and the transcription activity value in the case of the assay medium alone taken as 0%. The compound concentration showing a transcription activity of 5% (EC5 value) was calculated from a linear equation for two points on either side of 5%.

The target of experiment [2] is T1, human androgen receptor. In words: Investigation of antagonist effect on androgen receptor (reporter gene assay, 11A11B2 cells, with DHT). In kind it is cell-based. The protocol: as §1, §2
The 11A11B2 cells were inoculated in a white clear-bottomed 96-well microplate (COSTAR) so that the cell concentration was 1.0×10^4/well, and were cultured overnight. The assay medium containing DHT was added so that the final concentration of DHT was 0.1 nmol/L, and samples of the assay medium containing the compounds of the Examples or compounds of the Comparative Examples were added so that the final concentrations of the compounds of the Examples or compounds of the Comparative Examples were 1, 10, 100, 1,000 and 10,000 nmol/L, respectively. After culturing for 48, hours, the transcription activity values were measured. The transcription activity was measured using a Bright-Glo™ Luciferase Assay System (Promega).
The transcription activity rates of the compounds of the Examples were calculated from the transcription activity measured by the abovementioned method, with the transcription activity value obtained at 0.1 nmol/L DHT taken as 100%, and the transcription activity value in the case of the assay, medium alone taken as 0%.

The mark [3] stands for this setting: with 0.1 nmol/L DHT, transcription activity rate of Test Example 1 subtracted, 11A11B2 cells, 48 hours, read-out: IC50.

Where two headings read alike, the source gives them in different places.

Molecule `CCCS(=O)(=O)N1CCC(N2C(=O)N(c3ccc(C#N)c(Cl)c3C)C(=O)C2(C)C)CC1` [Example 11, 4-[3-(1-propanesulfonylpiperidin-4-yl)-4,4-dimethyl-2,5-dioxoimidazolidin-1-yl]-2-chloro-3-methylbenzonitrile] had an EC5 in experiment [1] above 10 µM. For the same molecule, in experiment [2] (setting [3]), the IC50 was found to be 300 nM.
In the case of `CCC(=O)N1CCC(N2C(=O)N(c3ccc(C#N)c(Cl)c3C)C(=O)C2(C)C)CC1` [Example 12, 4-[3-(1-propionylpiperidin-4-yl)-4,4-dimethyl-2,5-dioxoimidazolidin-1-yl]-2-chloro-3-methylbenzonitrile], the EC5 in experiment [1] was above 10 µM. Also, in experiment [2] (setting [3]), the IC50 was determined as 700 nM.
On to `CC(=O)Nc1nc2cc(N3C(=S)N(c4ccc(C#N)c(Cl)c4)C(=O)C3(C)C)ccc2s1` [Example 16, 4-[3-(2-acetylaminobenzothiazol-5-yl)-4,4-dimethyl-5-oxo-2-thioxoimidazolidin-1-yl]-2-chlorobenzonitrile], for which the EC5 in experiment [1] is 3 µM. Moreover, the IC50 in experiment [2] was determined as 40 nM.
Taken in the same sequence, the figures for `CC1(C)C(=O)N(c2ccc(C#N)c(C(F)(F)F)c2)C(=S)N1c1ccc2sc(NC(N)=O)nc2c1` [Example 18, {5-[3-(4-cyano-3-trifluoromethylphenyl)-5,5-dimethyl-4-oxo-2-thioxoimidazolidin-1-yl]-benzothiazol-2-yl}urea] were above 10 µM and 100 nM.
In experiment [1], `COc1cc(N2C(=O)C(C)(C)N(c3ccc4sc(NC(N)=O)nc4c3)C2=S)ccc1C#N` [Example 19, {5-[3-(4-cyano-3-methoxyphenyl)-5,5-dimethyl-4-oxo-2-thioxoimidazolidin-1-yl]-benzothiazol-2-yl}urea] came in with an EC5 above 10 µM. In experiment [2] (setting [3]), the half-inhibitory concentration (IC50) was 200 nM.
For the molecule `CC1(C)C(=O)N(c2ccc(C#N)c(Cl)c2)C(=S)N1c1ccc2sc(NC(N)=O)nc2c1` [Example 20, {5-[3-(4-cyano-3-chlorophenyl)-5,5-dimethyl-4-oxo-2-thioxoimidazolidin-1-yl]-benzothiazol-2-yl}urea], the EC5 in experiment [1] is above 10 µM. In addition, the 50% inhibitory concentration (IC50) in experiment [2] came out at 100 nM.
As for `CC1(C)C(=O)N(c2ccc(C#N)c(C(F)(F)F)c2)C(=O)N1c1ccc(NC(=O)CN2CCNCC2)c(Cl)c1` [Example 21, N-{2-chloro-4-[3-(4-cyano-3-trifluoromethylphenyl)-5,5-dimethyl-2,4-dioxoimidazolidin-1-yl]-phenyl}-2-piperazin-1-ylacetamide], in experiment [1], the EC5 is above 10 µM. Also, the half-inhibitory concentration (IC50) in experiment [2] (setting [3]) was found to be 500 nM.
Take `CC(=O)Nc1cc(N2C(=S)N(c3ccc(C#N)c(C(F)(F)F)c3)C(=O)C2(C)C)ccc1Cl` [Example 22, 4-[3-(3-acetylamino-4-chlorophenyl)-4,4-dimethyl-5-oxo-2-thioxoimidazolidin-1-yl]-2-trifluoromethylbenzonitrile]: in experiment [1], the EC5 was above 10 µM. Besides, in experiment [2] (setting [3]), the concentration for half-maximal inhibition (IC50) was 200 nM.
The matching figures for `CC(C)OC(=O)Nc1cc(N2C(=O)N(c3ccc(C#N)c(C(F)(F)F)c3)C(=O)C2(C)C)ccc1Cl` [Example 23, 4-[3-(3-isopropoxycarbonylamino-4-chlorophenyl)-4,4-dimethyl-2,5-dioxoimidazolidin-1-yl]-2-trifluoromethylbenzonitrile]: above 10 µM and 500 nM.
In experiment [1], `CCOC(=O)Nc1cc(N2C(=O)N(c3ccc(C#N)c(OC)c3)C(=O)C2(C)C)ccc1Cl` [Example 24, 4-[3-(3-ethoxycarbonylamino-4-chlorophenyl)-4,4-dimethyl-2,5-dioxoimidazolidin-1-yl]-2-methoxybenzonitrile] had an EC5 above 10 µM. Also, the concentration for half-maximal inhibition (IC50) in experiment [2] (setting [3]) amounted to 200 nM.
Molecule `COc1cc(N2C(=O)N(c3ccc(Cl)c(NC(=O)OC(C)C)c3)C(C)(C)C2=O)ccc1C#N` [Example 25, 4-[3-(3-isopropoxycarbonylamino-4-chlorophenyl)-4,4-dimethyl-2,5-dioxoimidazolidin-1-yl]-2-methoxybenzonitrile] gave an EC5 in experiment [1] above 10 µM. In addition, the IC50 in experiment [2] (setting [3]) came out at 400 nM.

These data come from patent US8470829B2 (priority 2004, dated 2013).
